{"source": "patent US6476004B1", "about": "“Pharmaceutical composition” (Mitsubishi Pharma Corporation, priority 1996, dated 2002)", "test": "Behaviour of the aqueous solution of the present compound", "assay_type": "physicochemical", "description": "When 2-amino-2-[2-(4-octylphenyl)ethyl]propane-1,3-diol or a pharmaceutical acceptable acid addition salt (particularly hydrochloride) is made an aqueous solution, the solution is observed foaming and shown hemolysis and local irritation at 0.01-20% by weight. When the present compound is made the aqueous solution at a higher concentration than 0.1% by weight, the present compound is dissolved by micellization. On the other hand, in the aqueous solution at a lower concentration than 0.05% by weight, the present compound is dissolved as a solution without micellization. […] The present invention characterizes that, by adding a cyclodextrin to the said aqueous solution, the problems such as foaming, hemolysis and local irritation, as well as prevention of crystalline deposits based on micellization, are settled at the same time.", "data": [{"smiles": "CCCCCCCCc1ccc(CCC(N)(CO)CO)cc1.Cl", "note": "[present compound, 2-amino-2-[2-(4-octylphenyl)ethyl]propane-1,3-diol hydrochloride]", "values": [{"measurement": "concentration of aqueous solution at which crystalline deposits are found", "result": "0.05-0.1 % by weight"}, {"measurement": "concentration of aqueous solution at which foaming, hemolysis and local irritation are shown", "result": "0.01-20 % by weight"}, {"measurement": "concentration of aqueous solution at which the compound is dissolved by micellization", "result": "> 0.1", "unit": "% by weight"}, {"measurement": "concentration of aqueous solution at which the compound is dissolved without micellization", "result": "< 0.05", "unit": "% by weight"}]}]}
